Test results: PubChem BioAssay (NCI)
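A five-concentration, 48-hour dose response in 96-well plates underlies each endpoint, interpolated linearly between surrounding concentrations. TGI denotes the concentration required for complete inhibition of growth.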

Experiments:
Assay in all cases: growth of human tumour cells (NCI), 48 h
NCI-H23 lung = test system: NCI-H23 lung
NCI-H226 lung = test system: NCI-H226 lung
KM12 colon = test system: KM12 colon
MCF7 breast = test system: MCF7 breast
COLO 205 colon = test system: COLO 205 colon
SK-OV-3 ovarian = test system: SK-OV-3 ovarian
PC-3 prostate = test system: PC-3 prostate
786-0 renal = test system: 786-0 renal
MDA-MB-231 breast = test system: MDA-MB-231 breast
UACC-257 melanoma = test system: UACC-257 melanoma
TK-10 renal = test system: TK-10 renal
BT-549 breast = test system: BT-549 breast
A549 NSCLC = test system: A549 NSCLC
A498 renal = test system: A498 renal
T-47D breast = test system: T-47D breast
HOP-92 NSCLC = test system: HOP-92 NSCLC
K-562 leukemia = test system: K-562 leukemia
SN12C renal = test system: SN12C renal
SR leukemia = test system: SR leukemia

Structure (SMILES)	TGI (NCI-H23 lung) [µM]	TGI (NCI-H226 lung) [µM]	TGI (KM12 colon) [µM]	TGI (MCF7 breast) [µM]	TGI (COLO 205 colon) [µM]	TGI (SK-OV-3 ovarian) [µM]	TGI (PC-3 prostate) [µM]	TGI (786-0 renal) [µM]	TGI (MDA-MB-231 breast) [µM]	TGI (UACC-257 melanoma) [µM]	TGI (TK-10 renal) [µM]	TGI (BT-549 breast) [µM]	TGI (A549 NSCLC) [µM]	TGI (A498 renal) [µM]	TGI (T-47D breast) [µM]	TGI (HOP-92 NSCLC) [µM]	TGI (K-562 leukemia) [µM]	TGI (SN12C renal) [µM]	TGI (SR leukemia) [µM]
O=C1CC(C(=O)N2CCCCC2)n2c(=O)n(-c3ccccc3)c(=O)n2C1 (stereo not drawn)	> 100	> 100	> 100	> 100	> 100	> 100	> 100	> 100	> 100	> 100	> 100	> 100	> 100						
CC(=O)N(CN1C(=O)CCC1C(=O)O)c1cccc(O)c1 (stereo not drawn)	> 100	> 100	> 100	> 100	> 100	> 100	> 100	> 100	> 100	> 100	> 100		> 100	> 100	> 100	> 100	> 100	> 100	
COc1cccc2nc3cc(C)c(C)cc3nc12	> 100	> 100	> 100		> 100	> 100		> 100		> 100	> 100		> 100	> 100		> 100	> 100	> 100	> 100
O=C1C(=Nc2ccccc2)Oc2cc(O)ccc21	> 100	> 100	> 100	> 100	> 100	> 100	> 100	> 100	> 100	> 100	> 100		> 100	> 100	> 100		> 100	> 100	> 100
c1ccc(C2OCCO2)c(OCCOc2cc(OCCOc3ccccc3C3OCCO3)c(OCCOc3ccccc3C3OCCO3)cc2OCCOc2ccccc2C2OCCO2)c1	27.3	47.3	> 100		> 100	13.7		17.3		> 100	31.4		> 100	35.4		21	> 100	> 100	> 100
Cc1ccc(-c2c(C#N)c(N)nc3c2CCS(=O)(=O)c2ccccc2-3)cc1	> 100	> 100	> 100		> 100		> 100	> 100	> 100	> 100	> 100	> 100	> 100	> 100	> 100	> 100	> 100	> 100	
CCN(CC)C(=S)N=Nc1c(O)[nH]c2ccccc12	14.6	8.2	10.5	2.37	11.6	12.6	13.9	11.4	8.02	12.3	5.07		11.9	3.64		8.52	5.31	14.2	4.91
O=C1[C@@H]2C[C@@H](O)CN2C(=O)c2ccccc2N1CCCO		> 100	> 100	> 100		> 100	> 100	> 100	> 100	> 100	> 100		> 100	> 100	> 100	> 100	> 100	> 100	
Clc1nc(NCCc2ccccc2)c2ncn(-c3ccccc3)c2n1	77.3	58.9	51.3	60.8	50.6	60.7	47.8	31.4	62.8	34.6	71.2	60	> 100	41.9	98.2		70.5	85.4	
CC(C)C1COC(c2cccc(C3=N[C@@H](C(C)C)CO3)n2)=N1 (stereo partly drawn)	> 100	> 100	> 100		> 100	> 100		> 100			> 100		> 100	> 100		> 100	> 100	> 100	> 100
CC(C)(CO)NC(=O)Nc1c(C(F)(F)F)cc(-c2ccccc2)[nH]c1=O	> 100	> 100	> 100	> 100	> 100	> 100	> 100	> 100	> 100	> 100	> 100	> 100	> 100	> 100	> 100	> 100	> 100	> 100	
Cn1cnc(N2CCCC2)c(C#N)c1=O	> 100	> 100	> 100	> 100	> 100		> 100	> 100	> 100	> 100	> 100		> 100	> 100	> 100	> 100	> 100	> 100	> 100
O=c1oc(-c2ccccc2)c(-c2ccccc2)n1-c1ccc(Br)cc1	85.3	> 100	> 100	> 100	> 100	> 100	> 100	> 100	> 100	> 100	> 100	> 100	> 100	> 100	> 100	> 100		> 100	
C/C(=N\NC(=S)NC(C)(C)C)c1ccccn1	> 100	16	> 100	> 100	> 100	80.1		98.4	> 100	> 100	> 100	> 100	> 38.4	> 39.6	34.9	9.47		> 88.5	
C=CCCCC1CCCNC1=S (stereo not drawn)	> 100	> 100	> 100	> 100		> 100	> 100	> 100	> 100	> 100	> 100	> 100	> 100	> 100	> 100	> 100	> 100	> 100	
C=CCNC(=O)NCCCC(NC(C)=O)C(=O)NCc1ccccc1 (stereo not drawn)	> 100	> 100	> 100		> 100	> 100		> 100		> 100	> 100		> 100	> 100		> 100	> 100	> 100	
COc1ccc(-c2cc(=O)c3cc4c(cc3[nH]2)OCO4)cc1	> 100	> 100			> 100			> 100		> 100	> 100		> 100	> 100			> 100	> 100	> 100
C[n+]1cccc2ccc(OC(=O)c3ccccc3)cc21	> 100	> 100	> 100	> 100	> 100	> 100		> 100		> 100	> 100		> 100	> 100	> 100	> 100	> 100	> 100	
CCC(=O)N(O)C(C)(C)C	> 100	> 100	> 100		> 100	> 100		> 100		> 100	> 100		> 100			> 100	> 100	> 100	> 100
Cc1ccc(S(=O)(=O)NNC2(NS(=O)(=O)c3ccc(Cl)cc3)C(Cl)=C(Cl)C(=O)c3ccccc32)cc1 (stereo not drawn)	34.1		35.2	37.3	34.9	32.2	33.5	28.2	44.9	32.6	30.5	29.1	34.2	36.7	> 100	41.6	36.1	31.6	
CC(C)CCc1n[nH]c(=O)n1/N=C\c1ccccc1	> 100	> 100	> 100		> 100	> 100		> 100	> 100	> 100	> 100		> 100	> 100	> 100	> 100	> 100	> 100	
Cc1ccc(S(=O)(=O)Nn2c(S)c(C#N)c(-c3ccc([N+](=O)[O-])cc3)c(C#N)c2=O)cc1		> 100	> 100	> 100	98.3	> 100	> 100	52.2	36.5	> 100	> 100	29.6	> 100	> 100		> 100	53.2	37.3	
O=C(/C=C/c1ccc(Cl)cc1)c1cccs1		44.5	31.1	15.8	37.9	77	32.8	30	39.9	37.4	47		83.5	56	45.1		> 100	33.2	50.5
CC1(C)OC(=O)C2(O1)C(=O)C1CCCCC12 (stereo not drawn)	> 100	> 100	> 100	> 100	> 100	> 100	> 100	> 100	> 100	> 100	> 100	> 100	> 100	> 100	> 100		> 100	> 100	
CC(C)C12C=CC(C)(CC1)n1c(=O)c3cc4ccccc4cc3c(=O)n12 (stereo not drawn)	> 100	> 100	> 100		> 100	> 100		> 100		> 100	94		> 100	79.1		> 100	> 100	> 100	> 100
C=C=C(Sc1ccccc1)C(C)(C)OC(C)=O	32.9	45.4	31.4		32.5	51.9		30.1		32.4	> 100		74.8	42.6		34.2	52	31.1	> 100
CS/C(C)=N/OC(=O)NCCCCNc1ccc(N=[N+]=[N-])cc1	> 100	> 100	> 100		> 100	> 100		> 100		> 100	> 100		> 100	> 100		> 100	> 100	> 100	> 100
COc1ccc(C(=O)N(C(=S)OCCOc2ccccc2)c2ccccc2)cc1	> 100		> 100	> 100	> 100	> 100	> 100	> 100	> 100	> 100	> 100	> 100	> 100	73.9	55.4	70.4	> 100	> 100	
Cc1ccc(S(=O)(=O)n2c3c(c4ccccc42)CCN2CCC(Br)C[C@@H]32)cc1 (stereo partly drawn)	26.6	27.9	21.1	22.8	30.2	31.9	26.3	30.2	31.3	21.1	29.4		31.4	41	21.8	32.4	18.6		19.2
Nc1ncnc2c1cnn2Cc1cn(COCC(O)CO)nn1 (stereo not drawn)	> 100		> 100	> 100	> 100	> 100	> 100	> 100	> 100	> 100	> 100	> 100	> 100	> 100	> 100	> 100		> 100	
